# Legend:
# SIK2 [1] = biological target: T1, SIK2 (Homo sapiens, UniProt Q9H0K1); assay: SIK2 Enzymatic Assay High Version 2 (High ATP); type: biochemical
# How it was run: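 At room temperature, enzyme (6 nM, 2× final) was preincubated with compound for 30 min, then 6 mM ATP and 400 μM HDAC5tide (both 2× final) were added for 2 h. ADP formed was measured by ADP-Glo Max (2 h reagent, 1 h detection) using luminescence.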
# SIK2 [2] = biological target: T1, SIK2; assay: SIK2 Enzymatic Assay Version 1 (ADP Glo); type: biochemical; settings: enzyme 0.6 nM, 160 μM ATP and 140 μM HDAC5tide (each 2× final concentration); 30 minutes pre-incubation, 4 hours; ADPGlo luminescence; read-out: SIK2 ADP Glo IC50 (μM) (Test Example 1)
# How it was run: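 Room-temperature ADP-Glo luminescence assay; SIK2 added at 0.6 nM (2× final) and preincubated with compound for 30 min. Reaction stopped with ADP-Glo Reagent for 40 min, then detection reagent for at least 30 min; no-peptide (ATP-only) wells served as negative control.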
# T1 sequence (Q9H0K1 whole entry, species assumed): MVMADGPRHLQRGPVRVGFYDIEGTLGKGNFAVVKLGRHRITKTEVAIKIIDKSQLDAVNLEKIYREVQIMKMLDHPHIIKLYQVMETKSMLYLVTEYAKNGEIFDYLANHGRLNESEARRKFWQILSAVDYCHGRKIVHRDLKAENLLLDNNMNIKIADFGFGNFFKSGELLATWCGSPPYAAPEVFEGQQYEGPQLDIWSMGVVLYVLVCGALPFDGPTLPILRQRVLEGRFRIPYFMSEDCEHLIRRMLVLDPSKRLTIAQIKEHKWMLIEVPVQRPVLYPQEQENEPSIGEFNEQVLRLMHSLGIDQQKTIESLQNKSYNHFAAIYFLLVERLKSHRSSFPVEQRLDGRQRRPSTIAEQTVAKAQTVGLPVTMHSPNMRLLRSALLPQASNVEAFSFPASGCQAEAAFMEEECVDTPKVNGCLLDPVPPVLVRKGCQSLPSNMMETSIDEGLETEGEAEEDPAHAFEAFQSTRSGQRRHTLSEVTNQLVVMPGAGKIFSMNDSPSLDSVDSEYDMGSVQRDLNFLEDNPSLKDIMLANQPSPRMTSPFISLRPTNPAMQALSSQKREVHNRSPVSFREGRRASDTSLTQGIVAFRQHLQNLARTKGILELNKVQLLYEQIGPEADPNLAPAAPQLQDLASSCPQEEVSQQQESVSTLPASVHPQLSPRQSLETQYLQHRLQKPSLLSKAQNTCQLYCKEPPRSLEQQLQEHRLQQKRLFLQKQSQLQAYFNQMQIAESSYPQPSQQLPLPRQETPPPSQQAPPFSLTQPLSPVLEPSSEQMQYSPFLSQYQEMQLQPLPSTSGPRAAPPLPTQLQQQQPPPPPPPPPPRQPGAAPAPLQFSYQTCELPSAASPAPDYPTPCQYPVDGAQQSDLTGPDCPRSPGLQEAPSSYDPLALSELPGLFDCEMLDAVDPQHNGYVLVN
SMILES,IC50 (SIK2 [1]),IC50 (SIK2 [2])
"N#Cc1cc(-c2ccn3nc(NC(=O)C4CC4)cc3c2)c(OCC2CNC2)cn1 [Example 23, N-[5-[5-(azetidin-3-ylmethoxy)-2-cyano-4-pyridyl]pyrazolo[1,5-a]pyridin-2-yl]cyclopropanecarboxamide]",16.3 nM,0.0021 µM
"N#Cc1cc(-c2ccn3nc(NC(=O)C4CC4)cc3c2)c(O[C@H]2CC[C@H](O)CC2)cn1 [Example 64, N-[5-[2-cyano-5-(4-hydroxycyclohexoxy)-4-pyridyl]pyrazolo[1,5-a]pyridin-2-yl]cyclopropanecarboxamide]",8.63 nM,0.000387 µM
"Cc1cc(-c2cn3cc(NC(=O)C4CC4)nc3cn2)c(OCC(C)(C)C#N)cn1 [Example 508, N-[6-[5-(2-cyano-2-methyl-propoxy)-2-methyl-4-pyridyl]imidazo[1,2-a]pyrazin-2-yl]cyclopropanecarboxamide]",53.7 nM,0.00366 µM
"N#Cc1cc(-c2ccn3nc(NC(=O)C4CC4)cc3c2)c(OC[C@@H]2CNCCO2)cn1 [Example 19, N-[5-[2-cyano-5-[[(2S)-morpholin-2-yl]methoxy]-4-pyridyl]pyrazolo[1,5-a]pyridin-2-yl]cyclopropanecarboxamide]",8.38 nM,0.000783 µM
"C[C@@H](O)COc1cnc(C#N)cc1-c1ccn2nc(NC(=O)C3CC3)cc2c1 [Example 94, N-[5-[2-cyano-5-[(2R)-2-hydroxypropoxy]-4-pyridyl]pyrazolo[1,5-a]pyridin-2-yl]cyclopropanecarboxamide]",167 nM,0.00847 µM
"Cc1cc(-c2ccn3nc(NC(=O)C4CC4)cc3c2)c(OC[C@H]2CC[C@@H](O)CC2)cn1 [Example 148, cis-N-[5-[5-[(4-hydroxycyclohexyl)methoxy]-2-methyl-4-pyridyl]pyrazolo[1,5-a]pyridin-2-yl]cyclopropanecarboxamide]",58.3 nM,0.00436 µM
"CN1CCC(Oc2cnc(C#N)cc2-c2ccn3nc(NC(=O)C4CC4)cc3c2)C1 (single isomer, unassigned) [Example 59, (*S)—N-(5-(2-cyano-5-((1-methylpyrrolidin-3-yl)oxy)pyridin-4-yl)pyrazolo[1,5-a]pyridin-2-yl)cyclopropanecarboxamide]",111 nM,0.0047 µM
"Cc1cc(-c2ccn3nc(Nc4cc(C)nc(C)n4)cc3c2)c(OCC(C)(C)O)nn1 [Example 600, 1-[4-[2-[(2,6-dimethylpyrimidin-4-yl)amino]pyrazolo[1,5-a]pyridin-5-yl]-6-methyl-pyridazin-3-yl]oxy-2-methyl-propan-2-ol]",207 nM,0.0142 µM
"Cc1cc(-c2ccn3nc(NC(=O)C4CC4)cc3c2)c(OCC2(N)CC(F)(F)C2)cn1 [Example 145, N-[5-[5-[(1-amino-3,3-difluoro-cyclobutyl)methoxy]-2-methyl-4-pyridyl]pyrazolo[1,5-a]pyridin-2-yl]cyclopropanecarboxamide]",16.4 nM,0.000642 µM
"Cc1cc(-c2ccn3nc(Nc4ccccn4)cc3c2)c(O[C@H]2CC[C@H](O)CC2)cn1 [Example 182, trans-4-[[6-methyl-4-[2-(2-pyridylamino)pyrazolo[1,5-a]pyridin-5-yl]-3-pyridyl]oxy]cyclohexanol]",33.8 nM,0.00176 µM
"CN1CC[C@@H](Oc2cnc(C#N)cc2-c2ccn3nc(NC(=O)C4CC4)cc3c2)C(F)(F)C1 [Example 11, N-[5-[2-cyano-5-[[(4R)-3,3-difluoro-1-methyl-4-piperidyl]oxy]-4-pyridyl]pyrazolo[1,5-a]pyridin-2-yl]cyclopropanecarboxamide]",31.6 nM,0.0014 µM
"N#Cc1cc(-c2ccn3nc(NC(=O)C4CC4)cc3c2)c(N2CC(O)C2)cn1 [Example 70, N-[5-[2-cyano-5-(3-hydroxyazetidin-1-yl)-4-pyridyl]pyrazolo[1,5-a]pyridin-2-yl]cyclopropanecarboxamide]",409 nM,0.0208 µM
"CN1CCO[C@H](COc2cnc(C#N)cc2-c2ccn3nc(NC(=O)C4CC4)cc3c2)C1 [Example 39, N-[5-[2-cyano-5-[[(2S)-4-methylmorpholin-2-yl]methoxy]-4-pyridyl]pyrazolo[1,5-a]pyridin-2-yl]cyclopropanecarboxamide]",36 nM,0.00152 µM
"N#Cc1cc(-c2ccn3nc(NC(=O)C4CC4)cc3c2)c(OCC2CCNC2)cn1 (stereo in doubt) [Example 45, N-[5-[2-Cyano-5-[[(3R)-pyrrolidin-3-yl]methoxy]-4-pyridyl]pyrazolo[1,5-a]pyridin-2-yl]cyclopropanecarboxamide]",23.4 nM,0.00116 µM
"N#Cc1cc(-c2ccn3nc(NC(=O)C4CC4)cc3c2)c(O[C@H]2C[C@H]3CC[C@@H](C2)N3)cn1 [Example 82, (3-endo)-N-(5-(5-(((1R,3r,5S)-8-azabicyclo[3.2.1]octan-3-yl)oxy)-2-cyanopyridin-4-yl)pyrazolo[1,5-a]pyridin-2-yl)cyclopropanecarboxamide]",5.07 nM,0.000268 µM
"Cc1cc(-c2ccn3nc(NC(=O)C4CC4)cc3c2)c(O[C@@H]2CNC[C@H](C(F)(F)F)C2)cn1 (single isomer, unassigned) [Example 445, N-[5-[2-methyl-5-[[(3*S,5*R)-5-(trifluoromethyl)-3-piperidyl]oxy]-4-pyridyl]pyrazolo[1,5-a]pyridin-2-yl]cyclopropanecarboxamide]",11.6 nM,0.00109 µM
"CN1CCO[C@@H](COc2cnc(C#N)cc2-c2ccn3nc(NC(=O)C4CC4)cc3c2)C1 [Example 36, (R)—N-(5-(2-cyano-5-((4-methylmorpholin-2-yl)methoxy)pyridin-4-yl)pyrazolo[1,5-a]pyridin-2-yl)cyclopropanecarboxamide]",20.1 nM,0.00321 µM
"CN1[C@@H]2CC[C@H]1C[C@H](COc1cnc(C#N)cc1-c1ccn3nc(NC(=O)C4CC4)cc3c1)C2 [Example 27, N-[5-[2-cyano-5-[[(1S,5R)-8-methyl-8-azabicyclo[3.2.1]octan-3-yl]methoxy]-4-pyridyl]pyrazolo[1,5-a]pyridin-2-yl]cyclopropanecarboxamide]",98.7 nM,0.00474 µM
"CN1CC[C@@H](COc2cnc(C#N)cc2-c2ccn3nc(Nc4ccncc4)cc3c2)C1 [Example 105, 5-[[(3R)-1-methylpyrrolidin-3-yl]methoxy]-4-[2-(4-pyridylamino)pyrazolo[1,5-a]pyridin-5-yl]pyridine-2-carbonitrile]",203 nM,0.00951 µM
"CC#Cc1cc(-c2ccn3nc(NC(=O)C4CC4)cc3c2)c(OC2CN(C)C2)cn1 [Example 442, N-[5-[5-(1-methylazetidin-3-yl)oxy-2-prop-1-ynyl-4-pyridyl]pyrazolo[1,5-a]pyridin-2-yl]cyclopropanecarboxamide]",3.75 nM,0.000323 µM
"CCOc1cnc(C)cc1-c1ccn2nc(NC(=O)C3CC3)cc2c1 [Example 752, N-[5-(5-ethoxy-2-methyl-4-pyridyl)pyrazolo[1,5-a]pyridin-2-yl]cyclopropanecarboxamide]",806 nM,0.061 µM
"CN1CCC[C@H](COc2cnc(C#N)cc2-c2ccn3nc(NC(=O)C4CC4)cc3c2)C1 [Example 38, (S)—N-(5-(2-cyano-5-((1-methylpiperidin-3-yl)methoxy)pyridin-4-yl)pyrazolo[1,5-a]pyridin-2-yl)cyclopropanecarboxamide]",305 nM,0.014 µM
"CN1CC[C@H](COc2cnc(C#N)cc2-c2ccn3nc(NC(=O)C4CC4)cc3c2)C1 [Example 16, (S)—N-(5-(2-cyano-5-((1-methylpyrrolidin-3-yl)methoxy)pyridin-4-yl)pyrazolo[1,5-a]pyridin-2-yl)cyclopropanecarboxamide]",236 nM,0.00496 µM
"Cc1cc(-c2ccn3nc(Nc4ccccn4)cc3c2)c(OC[C@H]2CNCCO2)cn1 [Example 428, 5-[2-methyl-5-[[(2R)-morpholin-2-yl]methoxy]-4-pyridyl]-N-(2-pyridyl)pyrazolo[1,5-a]pyridin-2-amine]",20.8 nM,0.00201 µM
"Cc1cc(-c2ccn3nc(NC(=O)C4CC4)cc3c2)c(O[C@@H]2CC[C@@H](N)C2)cn1 [Example 153, N-[5-[5-[(1R,3R)-3-aminocyclopentoxy]-2-methyl-4-pyridyl]pyrazolo[1,5-a]pyridin-2-yl]cyclopropanecarboxamide]",13.7 nM,0.000688 µM
"CN1CC[C@H](Oc2cnc(C#N)cc2-c2ccn3nc(NC(=O)C4CC4)cc3c2)C[C@@H]1C(F)(F)F (relative stereo) [Example 30, N-(5-(2-cyano-5-(((2*R,4*S)-1-methyl-2-(trifluoromethyl)piperidin-4-yl)oxy)pyridin-4-yl)pyrazolo[1,5-a]pyridin-2-yl)cyclopropanecarboxamide]",4.5 nM,0.00044 µM
"CN1CCC[C@@H](Oc2cnc(C#N)cc2-c2ccn3nc(NC(=O)C4CC4)cc3c2)C1 [Example 88, (R)—N-(5-(2-cyano-5-((1-methylpiperidin-3-yl)oxy)pyridin-4-yl)pyrazolo[1,5-a]pyridin-2-yl)cyclopropanecarboxamide]",51.1 nM,0.00298 µM
"N#Cc1cc(-c2ccn3nc(NC(=O)C4CC4)cc3c2)c(O[C@@H]2CNC[C@H](C(F)(F)F)C2)cn1 [Example 95, N-[5-[2-cyano-5-[[(3S,5R)-5-(trifluoromethyl)-3-piperidyl]oxy]-4-pyridyl]pyrazolo[1,5-a]pyridin-2-yl]cyclopropanecarboxamide]",2.58 nM,0.000435 µM

# Reference: patent publication US20240158392A1 (Janssen Biotech, Inc., priority 2021, published 2024)
